In one assay the test system is Candida albicans. Nature of the assay: MIC against Candida albicans. The following applies: table prints none. Type of assay: cell-based.
In another assay the test system is Clostridium difficile. As to the kind of experiment: MIC against Clostridium difficile, anaerobic broth dilution. The class given is cell-based. Particulars: Clostridioides difficile. As to the method: Clinical isolates of C. difficile were cultured on anaerobic blood agar and incubated anaerobically using container gas pack system at 37° C for 48 hours. The colonies were then suspended in pre-reduced phosphate buffered saline (PBS) and adjusted to 0.5 McFarland standard then diluted 1:300 in pre-reduced Supplemented Brain Heart Infusion broth. The bacterial suspension was then transferred to each well of 96-well plates, the drugs were added to the first row of wells in the required concentrations and serially diluted along the plates. The plates were incubated again anaerobically using container gas pack system at 37° C for 48 hours. The (MIC) recorded was the lowest concentration of the drug showing no visible growth of the bacteria.
On the technique in general: Broth dilution looks for growth in wells or tubes with falling amounts of substance.

The test system of another assay is MRSA USA300. As to the kind of experiment: MIC against MRSA USA300 with and without 4% human serum albumin. The class given is cell-based, Staphylococcus aureus. Particulars: for antibacterial activity in the presence or absence of HSA: MRSA USA300; for MIC: Staphylococcus aureus, read-out: MIC against MRSA USA300. Here is the method:
The minimum inhibitory concentration (MIC) and the minimum bactericidal concentration (MBC) of rhodanine compounds 1 to 7 were determined against various Gram-positive and Gram-negative pathogens (S1 Table) following the guidelines of the Clinical and Laboratory Standards Institute (CLSI)[4]. The broth microdilution technique was used, followed by subculturing on agar plates that were rhodanine—free. […] The MICs reported represent the lowest concentration of each compound necessary to inhibit bacterial growth and the MBCs represent the lowest concentration required to reduce the initial bacterial inoculum by ≥ 99.9%.
The antimicrobial activity of rhodanine compounds in the presence of 4% human serum albumin (HSA) was tested against MRSA USA300. The MICs of rhodanine compounds and control antibiotics (vancomycin and daptomycin) were tested as described in the methods above using tryptic soy broth spiked with 4% HSA. We also synthesized and tested three more compounds, ethyl ester and amide of rhodanine 2 (Rh 8 and Rh 10, respectively) and ethyl ester of rhodanine 3 (Rh 9) to determine the influence of a carboxyl group modification toward anti-MRSA activity and human serum albumin (HSA) binding.

The subject of assay [1] is Acinetobacter baumannii. Nature of the assay: MIC with/without sub-MIC colistin, Acinetobacter baumannii. The class given is cell-based. Here is the method: (§1) The MIC of the rhodanines and control antibiotics, in the presence of a sub-inhibitory concentration of colistin or polymixin B nonapeptide (PMBN), against Gram-negative bacteria was evaluated as described before. The antibacterial activity of the rhodanines was further investigated against E. coli SM1411Δ acrAB, a strain that is deficient in the multidrug-resistant AcrAB efflux pump, as described before.

Assay [2] relates to Escherichia coli O157:H7. Nature of the assay: MIC with/without sub-MIC colistin, Escherichia coli O157:H7. The class given is cell-based. Here is the method:
as §1

A further assay concerns Salmonella Typhimurium. As to the kind of experiment: MIC with/without sub-MIC colistin, Salmonella Typhimurium. The class given is cell-based. Particulars: Salmonella Typhimurium ATCC 700720. Here is the method:
as §1

For assay [3], the system named is Klebsiella pneumoniae. Nature of the assay: MIC with/without sub-MIC colistin, Klebsiella pneumoniae. The class given is cell-based. The following applies: Klebsiella pneumoniae ATCC BAA 2146. Here is the method: as §1
Assay [4] concerns Pseudomonas aeruginosa. Nature of the assay: MIC with/without sub-MIC colistin, Pseudomonas aeruginosa. Type of assay: cell-based. The following applies: Pseudomonas aeruginosa, ATCC921. Here is the method: as §1
The test system of assay [5] is Acinetobacter baumannii. Nature of the assay: MIC with/without PMBN, Acinetobacter baumannii. The class given is cell-based. Here is the method:
as §1

Assay [6] has as its system Escherichia coli O157:H7. Nature of the assay: MIC with/without PMBN, Escherichia coli O157:H7. Type of assay: cell-based. As to the method:
as §1

Assay [7] deals with Klebsiella pneumoniae. As to the kind of experiment: MIC with/without PMBN, Klebsiella pneumoniae. The class given is cell-based. As to the method:
as §1

In assay [8] the test system is Pseudomonas aeruginosa. As to the kind of experiment: MIC with/without PMBN, Pseudomonas aeruginosa. The class given is cell-based. Particulars: Pseudomonas aeruginosa, ATCC9721. Here is the method: as §1
Setting [9] is: ATCC10231, C. albicans ATCC 10231, unit from abstract, read-out: MIC.
The mark [10] stands for this setting: ATCC10231, C. albicans ATCC 10231, unit from abstract, read-out: MIC (second value after the slash).
[11] abbreviates: C. albicans NR 29434, unit from abstract, read-out: MIC.
The mark [12] stands for this setting: C. albicans NR 29434, unit from abstract, read-out: MIC (second value after the slash).
The mark [13] stands for this setting: C. albicans NR 29435, unit from abstract, read-out: MIC.
The mark [14] stands for this setting: C. albicans NR 29435, unit from abstract, read-out: MIC (second value after the slash).
Setting [15] is: C. albicans NR29437, unit from abstract, read-out: MIC.
The mark [16] stands for this setting: C. albicans NR29438, unit from abstract, read-out: MIC.
The mark [17] stands for this setting: C. albicans NR29438, unit from abstract, read-out: MIC (second value after the slash).
The mark [18] stands for this setting: C. albicans NR 29446, unit from abstract, read-out: MIC.
Where [19] appears, read: C. albicans NR 29448, unit from abstract, read-out: MIC.
Where [20] appears, read: C. albicans NR 29449, unit from abstract, read-out: MIC.
The mark [21] stands for this setting: C. albicans NR 29449, unit from abstract, read-out: MIC (second value after the slash).
The mark [22] stands for this setting: C. albicans NR 29453, unit from abstract, read-out: MIC.
Setting [23] is: C. albicans NR 29453, unit from abstract, read-out: MIC (second value after the slash).
Where [24] appears, read: C. albicans NR 294436, unit from abstract, read-out: MIC.
Where [25] appears, read: C. albicans NR 294436, unit from abstract, read-out: MIC (second value after the slash).
[26] abbreviates: Acinetobacter baumannii ATCC BAA747.
[27] abbreviates: Acinetobacter baumannii ATCC BAA19606.
The mark [28] stands for this setting: Escherichia coli O157:H7 ATCC 35150.
The mark [29] stands for this setting: Escherichia coli O157:H7 ATCC 700728.

Converted amounts (≈) assume the structure as drawn. Like-named read-outs stand apart in the source and are kept apart here.

For `C[C@@H]1[C@H](O)[C@@H](C)/C=C/C=C/C=C/C=C/C=C/C=C/C=C/[C@H](O[C@@H]2O[C@H](C)[C@@H](O)[C@H](N)[C@@H]2O)C[C@@H]2O[C@](O)(C[C@@H](O)C[C@@H](O)[C@H](O)CC[C@@H](O)C[C@@H](O)CC(=O)O[C@H]1C)C[C@H](O)[C@H]2C(=O)O` [Amphotericin B, amphotericin B, reference compound], the MIC in the assay with Candida albicans (setting [9]) was determined as 1 µM (≈ 0.924 µg/mL); in the assay with Candida albicans (setting [10]), 1 µM (≈ 0.924 µg/mL); in the assay with Candida albicans (setting [11]) it was 2 µM (≈ 1.85 µg/mL); in the assay on Candida albicans (setting [12]), 2 µM (≈ 1.85 µg/mL); with Candida albicans (setting [13]) it was 1 µM (≈ 0.924 µg/mL); in the assay on Candida albicans (setting [14]), 2 µM (≈ 1.85 µg/mL). Besides, the MIC in the assay on Candida albicans (setting [15]) was determined as 2 µM (≈ 1.85 µg/mL); in the assay with Candida albicans (setting [16]), 1 µM (≈ 0.924 µg/mL); with Candida albicans (setting [17]), 4 µM (≈ 3.7 µg/mL); with Candida albicans (setting [18]), 1 µM (≈ 0.924 µg/mL); in the assay with Candida albicans (C. albicans NR 29446, unit from abstract, read-out: MIC (second value after the slash)), 1 µM (≈ 0.924 µg/mL); in the assay with Candida albicans (setting [19]), 2 µM (≈ 1.85 µg/mL). The MIC in the assay on Candida albicans (C. albicans NR 29448, unit from abstract, read-out: MIC (second value after the slash)) stood at 2 µM (≈ 1.85 µg/mL); in the assay on Candida albicans (setting [20]), 1 µM (≈ 0.924 µg/mL); in the assay on Candida albicans (setting [21]), 2 µM (≈ 1.85 µg/mL); in the assay with Candida albicans (setting [22]), 1 µM (≈ 0.924 µg/mL); in the assay with Candida albicans (setting [23]), 2 µM (≈ 1.85 µg/mL); with Candida albicans (setting [24]), 2 µM (≈ 1.85 µg/mL). Further, in the assay with Candida albicans (setting [25]), the MIC worked out at 2 µM (≈ 1.85 µg/mL).
On to `OC(Cn1cncn1)(Cn1cncn1)c1ccc(F)cc1F` [Fluconazole, fluconazole, reference compound], for which the MIC is under 0.5 µM with Candida albicans (setting [9]); 1 µM (≈ 0.306 µg/mL) in the assay with Candida albicans (setting [10]); under 0.5 µM in the assay with Candida albicans (setting [11]); 1 µM (≈ 0.306 µg/mL) in the assay with Candida albicans (setting [12]); under 0.5 µM with Candida albicans (setting [13]); over 64 µM with Candida albicans (setting [14]). Moreover, the minimal inhibitory concentration (MIC) was 1 µM (≈ 0.306 µg/mL) in the assay on Candida albicans (setting [15]); under 0.5 µM in the assay with Candida albicans (setting [16]); over 64 µM with Candida albicans (setting [17]); over 64 µM in the assay with Candida albicans (setting [18]); over 64 µM in the assay on Candida albicans (setting [19]); under 0.5 µM in the assay on Candida albicans (setting [20]). Also, the minimal inhibitory concentration (MIC) was over 64 µM with Candida albicans (setting [21]); under 0.5 µM with Candida albicans (setting [22]); under 0.5 µM in the assay on Candida albicans (setting [23]); under 0.5 µM in the assay on Candida albicans (setting [24]); over 64 µM in the assay with Candida albicans (setting [25]).
On to `Cc1ncc([N+](=O)[O-])n1CCO` [Metronidazole, reference compound], for which the MIC with Clostridium difficile (C. difficile HM-88) came to 0.25 µM (≈ 0.0428 µg/mL); against Clostridium difficile (C. difficile HM-745), 0.5 µM (≈ 0.0856 µg/mL); in the assay with Clostridium difficile (C. difficile HM-746), 0.125 µM (≈ 0.0214 µg/mL); in the assay on Clostridium difficile (C. difficile Isolate-1 NR-13427), 0.25 µM (≈ 0.0428 µg/mL); in the assay on Clostridium difficile (C. difficile Toxigenic Strain P8 NR-32888) it was 1 µM (≈ 0.171 µg/mL).
In the case of `CCOC(=O)[C@H](Cc1ccccc1)N1C(=O)/C(=C/c2cccc(-c3ccc(Cl)c(Cl)c3)c2)SC1=S` [Rh 8, Ethyl (L,Z)-2-(5-((3',4'-dichloro-[1,1'-biphenyl]-3-yl)methylene)-4-oxo-2-thioxothiazolidin-3-yl)-3-phenylpropanoate], in the assay on MRSA USA300, the “antibacterial activity in the presence or absence of HSA” value (from here on “antibacterial activity”) is on record as “not active”. Besides, the MIC is over 64 µM in the assay on MRSA USA300 (24 h, Media TSB + 4% HSA) and over 64 µM in the assay with MRSA USA300 (Media TSB).
For `CCOC(=O)[C@H](Cc1ccccc1)N1C(=O)/C(=C/c2cccc(Cc3ccc(Cl)c(Cl)c3)c2)SC1=S` [Rh 9, Ethyl (L,Z)-2-(5-(3-(3,4-dichlorobenzyl)benzylidene)-4-oxo-2-thioxothiazolidin-3-yl)-3-phenylpropanoate], in the assay with MRSA USA300, the “antibacterial activity” value is “not active”. For the same compound, the MIC is over 64 µM in the assay on MRSA USA300 (24 h, Media TSB + 4% HSA) and over 64 µM in the assay on MRSA USA300 (Media TSB).
Take `NC(=O)[C@H](Cc1ccccc1)N1C(=O)/C(=C/c2cccc(-c3ccc(Cl)c(Cl)c3)c2)SC1=S` [Rh 10, (L,Z)-2-(5-((3',4'-dichloro-[1,1'-biphenyl]-3-yl)methylene)-4-oxo-2-thioxothiazolidin-3-yl)-3-phenylpropanamide]: in the assay with MRSA USA300, the “antibacterial activity” value is on record as “not active”. The MIC was over 64 µM in the assay with MRSA USA300 (24 h, Media TSB + 4% HSA) and over 64 µM in the assay on MRSA USA300 (Media TSB).
As for colistin [reference compound], the MIC of colistin in the assay with Acinetobacter baumannii [1] (setting [26]) was found to be 0.25 µg/mL; with Acinetobacter baumannii [1] (setting [27]), 0.5 µg/mL; with Escherichia coli O157:H7 [2] (setting [28]) it was 0.125 µg/mL; in the assay with Escherichia coli O157:H7 [2] (setting [29]), 0.0625 µg/mL; in the assay with Salmonella Typhimurium, 1 µg/mL; in the assay on Klebsiella pneumoniae [3] it was 0.5 µg/mL. For the same compound, the MIC of colistin with Pseudomonas aeruginosa [4] stood at 1 µg/mL.
Regarding “polymixin B nonapeptide [PMBN, reference compound]”, the “MIC of PMBN” value in the assay with Acinetobacter baumannii [5] (setting [26]), in the assay on Acinetobacter baumannii [5] (setting [27]), in the assay with Escherichia coli O157:H7 [6] (setting [28]), in the assay with Escherichia coli O157:H7 [6] (setting [29]), with Klebsiella pneumoniae [7] (Klebsiella pneumoniae ATCC BAA 1706) and with Klebsiella pneumoniae [7] (Klebsiella pneumoniae ATCC BAA 2146) was over 128 µg/mL throughout. Further, in the assay on Pseudomonas aeruginosa [8], the “MIC of PMBN” value was over 128 µg/mL.

As usually defined, the MIC is the lowest concentration that inhibits growth of the organism.

For the origin of these results see paper PMC5053523, “In Vitro Antibacterial Activity of Rhodanine Derivatives against Pathogenic Clinical Isolates” (PLoS ONE, 2016).
